This note sets out measurements from patent US8664243B2, “Sulfonamide compound and crystal thereof” (Asahi Kasei Pharma Corporation, priority 2007, dated 2014).

Each structure is given as a SMILES string.

Holding throughout (type): physicochemical
A short description of data set [1]: Hygroscopicity Test 2 (25° C. and 84% RH; free base, salts and salt mixtures). To be noted: for Appearance / Water content / Purity: 25° C. and 84% RH, dark; for Purity: HPLC. As to the method:
(§1) Hygroscopicity of Compound 1 or the substance in the form of a salt can be evaluated by putting a sample on a glass weighing dish, storing the dish in a dark place for a given period of time in an open state at a temperature of 25 to 40° C. under a humidification condition of about 75 to 94% relative humidity, and then observing or measuring appearance, purity, water content and the like of Compound 1 or the substance in the form of a salt. Increase of water content before and after storage especially serves as an important hygroscopic index. For example, the evaluation is preferably performed after storage conditions of 25° C. and 84% RH. • High performance liquid chromatography apparatus: LC-10A Series (Shimadzu) or Agilent 1100 series (Agilent Technologies) • Solution concentration: 500 μg/ml • Injection: 10 μl • Detector: Ultraviolet absorptiometer (measurement wavelength: 245 nm) • Column: XBridge Shield RP18 5 μm, internal diameter: 4.6 mm, length: 15 cm (Waters) • Column temperature: Constant temperature around 40° C. • Mobile phase A: 20 mmol/l Sodium phosphate buffer (pH 7.0) • Mobile phase B: Acetonitrile • Liquid feeding program: A concentration gradient was formed by changing the mixing ratio of the mobile phase A and the mobile phase B as shown in Table 1. • Flow rate: 1.0 ml/minute • Water content measurement apparatus: AQ-7 (Hiranuma Sangyo) • Sample amount: 5 mg • Anolyte: Aqualyte RS (Sigma-Aldrich) • Catholyte: Aqualyte CN (Sigma-Aldrich) Compound 1 obtained by a method similar to the method described in Example 1 (two kinds of lots), the monohydrochloride obtained by the method described in Example 3, the dihydrochloride, and mixtures of the monohydrochloride and the dihydrochloride at ratios of 9:1, 8:2, 6:4, 4:6 and 2:8 were weighed on a glass weighing dish in an amount of each 40 mg, and each sample was stored in a dark place at 25° C. and 84% RH for 2 to 4 weeks. After the storage, appearance was evaluated by visual inspection. Further, purity was measured under the conditions of Test Example 7, and water content was measured under the conditions of Test Example 8.

A short description of data set [2]: Thermal stability test (sealed glass vial, dark place, 60° C.). The conditions noted are these: for Appearance / Water content / Purity: 60° C., dark, sealed vial; for Purity: HPLC. The protocol: Thermal stability of Compound 1 or the substance in the form of a salt can be evaluated by, for example, sealing a sample in a glass vial or the like, storing the vial under a severe temperature condition such as 40 to 80° C. in a dark place for a given period of time, and then observing or measuring appearance, purity, water content and the like of Compound 1 or the substance in the form of a salt. Change of purity before and after storage especially serves as an important index of thermal stability. For example, the evaluation is preferably performed under a storage condition of 60° C. • High performance liquid chromatography apparatus: LC-10A Series (Shimadzu) or Agilent 1100 series (Agilent Technologies) • Solution concentration: 500 μg/ml • Injection: 10 μl • Detector: Ultraviolet absorptiometer (measurement wavelength: 245 nm) • Column: XBridge Shield RP18 5 μm, internal diameter: 4.6 mm, length: 15 cm (Waters) • Column temperature: Constant temperature around 40° C. • Mobile phase A: 20 mmol/l Sodium phosphate buffer (pH 7.0) • Mobile phase B: Acetonitrile • Liquid feeding program: A concentration gradient was formed by changing the mixing ratio of the mobile phase A and the mobile phase B as shown in Table 1. • Flow rate: 1.0 ml/minute • Water content measurement apparatus: AQ-7 (Hiranuma Sangyo) • Sample amount: 5 mg • Anolyte: Aqualyte RS (Sigma-Aldrich) • Catholyte: Aqualyte CN (Sigma-Aldrich) The monohydrochloride obtained by the method described in Example 3, the monohydrobromide obtained by the method described in Example 4, and the dihydrochloride as a control were weighed in a glass vial in an amount of 40 mg each, and the glass vial was sealed. Each sample was stored in a dark place at 60° C. for 2 to 4 weeks, and after the storage, appearance was evaluated by visual inspection. Further, purity was measured under the conditions of Test Example 7, and water content was measured under the conditions of Test Example 8.

The nature of data set [3]: Hygroscopicity Test 1 (open glass weighing dish, dark place, 25° C. and 84% RH). The conditions noted are these: for Appearance / Water content / Purity: 25° C. and 84% RH, dark, open; for Purity: HPLC. The protocol:
as §1, with “(Sigma-Aldrich) The” for “(Sigma-Aldrich) Compound 1 obtained by a method similar to the method described in Example 1 (two kinds of lots), the”, “the monohydrobromide obtained by” for “the dihydrochloride, and mixtures of”, “the method described in Example 4,” for “the monohydrochloride”, “dihydrochloride as a control” for “dihydrochloride at ratios of 9:1, 8:2, 6:4, 4:6 and 2:8”, “of” for “of each”, “40 mg each,” for “40 mg,”

A short description of data set [4]: Measurement of water content (coulometric titration method). The conditions noted are these: as prepared, sample 5 mg. An excerpt: For evaluation of purity of Compound 1 or the substance in the form of a salt, the area percentage method based on HPLC is convenient. For evaluation of water content of Compound 1 or the substance in the form of a salt, the volumetric titration method, the coulometric titration method described in Japanese Pharmacopoeia, General Test Methods, “Water Determination”, the loss on drying test and the like can be used. When sample weight is small, the coulometric titration method can be preferably chosen.

Setting [5] is: storage for two weeks at 25° C. and 84% RH.
The mark [6] stands for this setting: after storage at 60° C. for 4 weeks.
[7] abbreviates: after storage at 25° C. and 84% RH for 4 weeks.

On to `CN[C@H]1CCN(S(=O)(=O)c2cccc3cncc(Cl)c23)C1` [Compound 1, (S)-1-(4-chloro-5-isoquinolinesulfonyl)-3-(methylamino)pyrrolidine], for which the Appearance entry in data set [1] (after 2 weeks), in data set [1] (after 4 weeks) and in data set [1] (before storage) was “Slightly” throughout. Moreover, the Water content in data set [1] (after 2 weeks, listed as Compound 1 (Lot 1)) is 5.7%; in data set [1] (after 2 weeks, listed as Compound 1 (Lot 2)) it was 7.6%; in data set [1] (after 4 weeks, listed as Compound 1 (Lot 1)) it was 8.1%; in data set [1] (after 4 weeks, listed as Compound 1 (Lot 2)), 9.1%; in data set [1] (before storage, listed as Compound 1 (Lot 1)) it was 0.9%; in data set [1] (before storage, listed as Compound 1 (Lot 2)), 1.7%. Also, the Purity in data set [1] (after 2 weeks), in data set [1] (after 4 weeks) and in data set [1] (before storage) was 99.9% each time. In addition, the Moisture absorption result in data set [1] (both lots, after storage at 25° C. and 84% RH for 4 weeks) is on record as “further moisture absorption”.

In the case of `CN[C@H]1CCN(S(=O)(=O)c2cccc3cncc(Cl)c23)C1.Cl.Cl` [Dihydrochloride, (S)-1-(4-chloro-5-isoquinolinesulfonyl)-3-(methylamino)pyrrolidine dihydrochloride, reference compound], the Appearance entry in data set [2] (after 2 weeks) is “Pale brown”; in data set [2] (before storage), “White”; in data set [3] (after 2 weeks), “Brown”; in data set [3] (before storage), “White”; in data set [1] (after 2 weeks), “Pale”; in data set [1] (before storage), “White”. The Water content turned out to be 2.93% in data set [2] (after 2 weeks); 3.76% in data set [2] (before storage); 15.24% in data set [3] (after 2 weeks); 3.76% in data set [3] (before storage); 19.8% in data set [1] (after 2 weeks); 5.2% in data set [1] (before storage). In addition, the Purity in data set [2] (after 2 weeks) worked out at 99.5%; in data set [2] (before storage), 98.1%; in data set [3] (after 2 weeks), 99.3%; in data set [3] (before storage), 98.1%; in data set [1] (after 2 weeks) it was 99.9%; in data set [1] (before storage), 100.0%. In addition, the Change of appearance result in data set [2] (after storage at 60° C. for 2 weeks, dihydrochloride) is reported as “change of appearance”; in data set [3] (after storage at 25° C. and 84% RH for 2 weeks, dihydrochloride) it was “apparent change of appearance”. For the same molecule, the “Changes in physicochemical properties” value in data set [2] (stability test at 60° C. for two weeks) and in data set [3] (setting [5]) was “changes in physicochemical properties” in each case. In data set [3] (after storage at 25° C. and 84% RH for 2 weeks), the Moisture absorption entry is recorded as “marked moisture absorption”. In addition, the Hygroscopicity result in data set [3] (setting [5]) is reported as “remarkable hygroscopicity”.

With `Br.CN[C@H]1CCN(S(=O)(=O)c2cccc3cncc(Cl)c23)C1` [Monohydrobromide, (S)-1-(4-chloro-5-isoquinolinesulfonyl)-3-(methylamino)pyrrolidine monohydrobromide], the Appearance result in data set [2] (after 2 weeks), in data set [2] (after 4 weeks), in data set [2] (before storage), in data set [3] (after 2 weeks), in data set [3] (after 4 weeks) and in data set [3] (before storage) was “White” throughout. Besides, the Water content is 0.05% in data set [2] (after 2 weeks); 0.05% in data set [2] (after 4 weeks); 0.14% in data set [2] (before storage); 0.05% in data set [3] (after 2 weeks); 0.05% in data set [3] (after 4 weeks); 0.14% in data set [3] (before storage). In data set [4], the Water content is recorded as 0.14%. Moreover, the Purity in data set [2] (after 2 weeks) turned out to be 99.9%; in data set [2] (after 4 weeks) it was 99.8%; in data set [2] (before storage) it was 99.7%; in data set [3] (after 2 weeks), 99.9%; in data set [3] (after 4 weeks), 99.7%; in data set [3] (before storage), 99.7%. Besides, the “Thermal stability compared with the dihydrochloride” value in data set [2] (Test Example 9, 60° C.) is given as “more satisfactory thermal stability”. Moreover, the Change of appearance entry in data set [2] (setting [6]) and in data set [3] (setting [7]) was “no change of appearance” each time. Besides, the Degradation of purity entry in data set [2] (setting [6]) and in data set [3] (setting [7]) was “no degradation of purity” throughout. For the same molecule, the “Hygroscopicity compared with the dihydrochloride” value in data set [3] (Test Example 10, 25° C. and 84% RH) is on record as “remarkably lower hygroscopicity”. In data set [3] (setting [7]), the “Increase of water content” value is recorded as “no substantial increase of water content”.
